Paper PMC8072159, “5-Bis-(2,6-difluoro-benzylidene) Cyclopentanone Acts as a Selective 11β-Hydroxysteroid Dehydrogenase one Inhibitor to Treat Diet-Induced Nonalcoholic Fatty Liver Disease in Mice” (Frontiers in Pharmacology, 2021)
Entries after “also recorded” stand apart in the source; their conditions may differ.

Columns and labels:
Type in all cases: biochemical
[1] = target: T1, 11β-HSD1 (Mus musculus, UniProt P50172); experiment: 11β-HSD1 reductive activity in mouse liver microsomes
T1 construct: from tissue; host or cells: mouse liver microsomes prepared in house (probably from Kunming mice)
T1 sequence (P50172 whole entry): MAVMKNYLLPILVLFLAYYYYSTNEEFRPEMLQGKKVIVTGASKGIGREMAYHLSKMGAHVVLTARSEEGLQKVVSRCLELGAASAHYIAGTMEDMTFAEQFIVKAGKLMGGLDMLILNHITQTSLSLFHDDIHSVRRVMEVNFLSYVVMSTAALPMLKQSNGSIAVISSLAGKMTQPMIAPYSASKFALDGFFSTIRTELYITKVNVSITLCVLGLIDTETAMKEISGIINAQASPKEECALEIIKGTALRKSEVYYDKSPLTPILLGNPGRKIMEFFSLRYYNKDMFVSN
Experimental: (§1) Preparation of Rat and Mouse Liver and Kidney Microsomes
The liver and kidney microsomes were prepared as previously described ([Guo et al., 2012]). Briefly, the tissue was homogenized in […] phosphate buffered saline (PBS) containing 0.25 M sucrose, and the nuclei and large cell debris were removed by centrifugation at 1500 g for 10 min. The supernatant was transferred to a tube and the mitochondria were removed by centrifugation at 10, 000 × g for 30 min. The supernatant was transferred to an ultracentrifuge tube and centrifuged twice at 105,000 × g, the resulting microsomal precipitate was collected. The protein content was measured by the BCA kit according to the manufacturer’s instruction. The protein concentration was adjusted to 20 mg/ml. These proteins were used to measure 11β-HSD1 and 11β-HSD2 activities. […]
The reductive activity of 11β-HSD1 in rat, mouse, and human liver microsomes was measured as previously described ([Ge et al., 2005]). […] 11β-HSD1 activity was measured using 11-DHC or cortisone as a substrate. […] The inhibitory ability of the chemical relative to the control (DMSO solvent) was measured. […] The steroids in chloroform and methanol (90:10, v/v) were chromatographically separated on a thin layer plate, and radioactivity was measured using a scanning radiometer (System AR2000, Bioscan Inc., Washington, DC, United States). […]

[2] = target: T2, 11β-HSD2 (Mus musculus, UniProt P51661); experiment: 11β-HSD2 activity in mouse kidney microsomes; details: 100 μM
T2 construct: from tissue; host or cells: mouse kidney microsomes prepared in house
T2 sequence (P51661 1-386): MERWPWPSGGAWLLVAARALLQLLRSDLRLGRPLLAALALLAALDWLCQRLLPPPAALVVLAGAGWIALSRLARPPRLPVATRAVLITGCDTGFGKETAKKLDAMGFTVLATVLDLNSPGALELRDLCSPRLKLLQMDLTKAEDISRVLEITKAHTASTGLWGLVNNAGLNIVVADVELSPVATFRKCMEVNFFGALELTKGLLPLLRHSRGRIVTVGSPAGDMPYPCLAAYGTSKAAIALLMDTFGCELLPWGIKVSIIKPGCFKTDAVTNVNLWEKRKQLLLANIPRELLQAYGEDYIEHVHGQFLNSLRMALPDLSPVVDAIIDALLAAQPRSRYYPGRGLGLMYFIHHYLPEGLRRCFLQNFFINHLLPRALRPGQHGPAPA
Experimental: as §1
The liver and kidney microsomes were prepared as previously described ([Guo et al., 2012]). Briefly, the tissue was homogenized in […] phosphate buffered saline (PBS) containing 0.25 M sucrose, and the nuclei and large cell debris were removed by centrifugation at 1500 g for 10 min. The supernatant was transferred to a tube and the mitochondria were removed by centrifugation at 10, 000 × g for 30 min. The supernatant was transferred to an ultracentrifuge tube and centrifuged twice at 105,000 × g, the resulting microsomal precipitate was collected. The protein content was measured by the BCA kit according to the manufacturer’s instruction. The protein concentration was adjusted to 20 mg/ml. These proteins were used to measure 11β-HSD1 and 11β-HSD2 activities.
(§2) Measurement of 11β-HSD2 Activity in Rat, Mouse, and Human Kidney Microsomes
The 11β-HSD2 assay was based on rat, mouse, and human kidney microsomes, as previously described ([Ge et al., 2005]). In brief, the 11β-HSD2 activity assay tube contained 25 nM substrate (cortisol for humans, CORT for rats and mice). […] The percentage conversion of cortisol to cortisone (humans) or CORT to 11DHC (rats and mice) was calculated by dividing the radioactive count of an 11keto-steroid product by the total count associated with both substrate and product.

[3] = target: T3, 11β-HSD1 (Homo sapiens, UniProt P28845); experiment: 11β-HSD1 reductive activity in human liver microsomes
T3 construct: purchased Gentest (Woburn, MA); host or cells: human liver microsomes (tissue)
T3 sequence (P28845 whole entry): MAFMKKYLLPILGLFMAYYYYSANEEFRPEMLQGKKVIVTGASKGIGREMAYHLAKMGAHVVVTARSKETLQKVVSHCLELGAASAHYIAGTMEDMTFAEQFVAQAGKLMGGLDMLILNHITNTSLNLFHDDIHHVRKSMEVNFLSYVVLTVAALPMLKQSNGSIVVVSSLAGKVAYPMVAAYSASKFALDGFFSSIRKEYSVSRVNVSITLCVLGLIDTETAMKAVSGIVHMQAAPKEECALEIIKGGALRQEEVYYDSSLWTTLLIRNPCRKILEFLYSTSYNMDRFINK
Experimental: Determination of 11β-HSD1 in Rat, Mouse, and Human Liver Microsomes
The reductive activity of 11β-HSD1 in rat, mouse, and human liver microsomes was measured as previously described ([Ge et al., 2005]). In short, the 11β-HSD1 activity assay tube contained 25 nM substrate, 11DHC (for rats or mice) or cortisone (for humans), spiked with 60,000 dpm of each 3H-steroid. 11β-HSD1 activity was measured using 11-DHC or cortisone as a substrate. A 25 nM steroid substrate is used because the concentration is within the physiological concentration range. Rat (10 μg), mouse (10 μg) and human (4 μg) liver microsomes were incubated with 11-ketosteroids, 0.2 mM NADPH, and various concentrations (10^−10–10^−5 M) of drug candidates at 37 °C for 60–90 min. The inhibitory ability of the chemical relative to the control (DMSO solvent) was measured. […] The reaction was stopped by adding 10 µL of 1 mM glycyrrhetinic acid and 1 ml of ice-cold ether. […] The steroids in chloroform and methanol (90:10, v/v) were chromatographically separated on a thin layer plate, and radioactivity was measured using a scanning radiometer (System AR2000, Bioscan Inc., Washington, DC, United States). The percentage of 11DHC being converted to CORT or cortisone being converted to cortisol can be calculated by dividing the radioactivity count of 11-OH-steroids by the total count. […]

[4] = target: T4, 11β-HSD2 (Homo sapiens, UniProt P80365); experiment: 11β-HSD2 activity in human kidney microsomes; details: 100 μM
T4 construct: purchased Gentest (Woburn, MA); host or cells: human kidney microsomes (tissue)
T4 sequence (P80365 1-405): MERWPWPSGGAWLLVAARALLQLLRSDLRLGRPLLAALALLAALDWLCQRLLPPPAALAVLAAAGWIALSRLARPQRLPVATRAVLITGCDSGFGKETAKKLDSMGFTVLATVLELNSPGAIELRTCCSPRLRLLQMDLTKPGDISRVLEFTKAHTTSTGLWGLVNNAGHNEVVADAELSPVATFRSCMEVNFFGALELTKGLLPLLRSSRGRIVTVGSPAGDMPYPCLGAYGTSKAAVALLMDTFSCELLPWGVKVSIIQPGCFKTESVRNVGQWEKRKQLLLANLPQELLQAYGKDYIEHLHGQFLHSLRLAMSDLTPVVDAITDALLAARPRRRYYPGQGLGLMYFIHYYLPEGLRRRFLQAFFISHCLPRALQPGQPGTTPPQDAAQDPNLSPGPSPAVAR
Experimental: as §2
The 11β-HSD2 assay was based on rat, mouse, and human kidney microsomes, as previously described ([Ge et al., 2005]). In brief, the 11β-HSD2 activity assay tube contained 25 nM substrate (cortisol for humans, CORT for rats and mice). Renal microsomes (10 μg) were incubated with substrate and 0.2 mM NAD^+ for 30 min. Other procedures were described above. The percentage conversion of cortisol to cortisone (humans) or CORT to 11DHC (rats and mice) was calculated by dividing the radioactive count of an 11keto-steroid product by the total count associated with both substrate and product.

O=C1/C(=C/c2c(F)cccc2F)CC/C1=C\c1c(F)cccc1F [WZS08, (2E,5E)-2,5-bis(2,6-difluorobenzylidene) Cyclopentanone]
inhibition at 100 µM ([1]; 100 μM, initial screening, read-out: 11β-HSD1 inhibition, mouse enzyme): 94.5 ± 0.97%
IC50 ([1]; mouse liver microsomes, 25 nM 11DHC, NADPH): 244 nM
effect on 11β-HSD2 activity, mouse [2]: did not affect; also recorded: almost no effect
inhibition at 100 µM ([3]; 100 μM, initial screening, read-out: 11β-HSD1 inhibition, human enzyme): 85.4 ± 1.67%
IC50 ([3]; human liver microsomes, 25 nM cortisone, NADPH): 621 nM
effect on 11β-HSD2 activity, human [4]: did not affect; also recorded: almost no effect
